ChEMBL document CHEMBL1821645, “Synthesis and anticancer activity of (RS)-9-(2,3-dihydro-1,4-benzoxaheteroin-2-ylmethyl)-9H-purines” (Eur J Med Chem, 2011)
Activity calls are given as the source filed them. The rule behind the calls is not given here.

Experiments:
MCF7 [1] = test: Antiproliferative activity against human MCF7 cells after 3 days by sulforhodamine-B colorimetric assay; type: functional, cell-based; details: MCF7, 72 h
MCF7 [2] = test: Cell cycle arrest in human MCF7 cells assessed as accumulation at […] phase after 48 hrs by flow cytometry (reference value: 19.29 +/- 1.68 %); type: functional
MCF7 [3] = test: Cell cycle arrest in human MCF7 cells assessed as accumulation at G2/M phase after 48 hrs by flow cytometry (reference value: 13.26 +/- 2.98 %); type: functional
[4] = target: Eukaryotic translation initiation factor 2 subunit 1 (Homo sapiens) (UniProt P05198); test: Induction of eIF2alpha phosphorylation in human MCF7 cells at 3 times IC50 after 36 hrs by Western blot analysis; type: cell-based
[5] = target: Cellular tumor antigen p53 (Homo sapiens) (UniProt P04637); test: Induction of p53 activation in human MCF7 cells assessed as phosphorylation at Ser15 at 3 times IC50 after 4 to 36 hrs by Western blot analysis; type: cell-based
MCF7 [6] = test: Cell cycle arrest in human MCF7 cells assessed as accumulation at G0/G1 phase after 48 hrs by flow cytometry (reference value: 62.79 +/- 1.30 %); type: functional
MCF7 [7] = test: Induction of apoptosis in human MCF7 cells assessed as activation of caspase 9 at 3 times IC50 after 16 to 36 hrs by immunoblotting; type: functional, cell-based
MCF7 [8] = test: Induction of apoptosis in human MCF7 cells at 3 times IC50 after 48 hrs by using Annexin V-FITC staining by flow cytometry (reference value: 0.92 +/- 1.29 %); type: functional

Eukaryotic translation initiation factor 2 subunit 1 (Homo sapiens), sequence (P05198 whole entry): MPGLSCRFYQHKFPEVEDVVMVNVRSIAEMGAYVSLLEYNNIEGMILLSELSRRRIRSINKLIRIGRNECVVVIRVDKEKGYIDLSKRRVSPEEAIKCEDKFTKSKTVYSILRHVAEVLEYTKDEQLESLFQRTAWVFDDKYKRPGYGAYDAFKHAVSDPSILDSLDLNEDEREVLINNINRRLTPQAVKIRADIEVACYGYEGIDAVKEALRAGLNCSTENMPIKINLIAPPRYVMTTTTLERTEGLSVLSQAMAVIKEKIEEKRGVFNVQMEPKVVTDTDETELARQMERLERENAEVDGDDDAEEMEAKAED
Cellular tumor antigen p53 (Homo sapiens), sequence (P04637 whole entry, looked up): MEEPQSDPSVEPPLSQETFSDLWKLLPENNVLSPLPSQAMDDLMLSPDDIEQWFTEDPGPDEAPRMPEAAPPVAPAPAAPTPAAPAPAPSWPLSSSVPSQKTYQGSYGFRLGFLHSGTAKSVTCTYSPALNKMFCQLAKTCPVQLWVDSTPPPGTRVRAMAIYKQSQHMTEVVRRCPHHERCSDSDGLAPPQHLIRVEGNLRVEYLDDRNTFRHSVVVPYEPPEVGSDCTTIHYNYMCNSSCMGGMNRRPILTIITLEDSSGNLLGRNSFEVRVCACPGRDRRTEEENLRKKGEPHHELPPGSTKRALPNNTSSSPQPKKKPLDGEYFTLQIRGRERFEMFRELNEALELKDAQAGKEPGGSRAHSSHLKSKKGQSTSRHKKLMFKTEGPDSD

SMILES: Nc1ncnc2c1ncn2CC1CSc2ccccc2O1 (racemic)
- IC50 (MCF7 [1]): > 30 µM

SMILES: Nc1ncnc2c1ncn2CC1COc2ccccc2O1 (racemic)
- IC50 (MCF7 [1]): > 30 µM

SMILES: Clc1nc(Cl)c2ncn(CC3COc4ccccc4S3)c2n1 (racemic)
- IC50 (MCF7 [1]): 8.97 µM

SMILES: Brc1ncnc2c1ncn2CC1COc2ccccc2S1 (racemic)
- IC50 (MCF7 [1]): 6.18 µM

SMILES: Clc1ncnc2c1ncn2CC1COc2ccccc2O1 (racemic)
- IC50 (MCF7 [1]): 18.8 µM

SMILES: Clc1nc(Cl)c2ncn(CC3CSc4ccccc4O3)c2n1 (racemic)
- Activity (MCF7 [2]): 10.83%
- IC50 (MCF7 [1]): 2.75 µM
- Activity (MCF7 [3]): 43.89%
- Activity [4]: Active
- Activity [5]: inactive
- Activity (MCF7 [6]): 45.28%
- Activity (MCF7 [7]): Active
- Activity (MCF7 [8]): 70.08%

SMILES: Brc1ncnc2c1ncn2CC1CSc2ccccc2O1 (racemic)
- Activity (MCF7 [2]): 17.06%
- IC50 (MCF7 [1]): 4.87 µM
- Activity (MCF7 [3]): 31.37%
- Activity [4]: Active
- Activity [5]: inactive
- Activity (MCF7 [6]): 51.56%
- Activity (MCF7 [7]): Active
- Activity (MCF7 [8]): 14.33%

SMILES: CC(=O)O[C@H]1C(=O)[C@@]2(C)[C@H]([C@H](OC(=O)c3ccccc3)[C@]3(O)C[C@H](OC(=O)[C@H](O)[C@@H](NC(=O)c4ccccc4)c4ccccc4)C(C)=C1C3(C)C)[C@]1(OC(C)=O)CO[C@@H]1C[C@@H]2O
- Activity [5]: inactive
- Activity (MCF7 [7]): Active

SMILES: Brc1ncnc2c1ncn2CC1COc2ccccc2O1 (racemic)
- Activity (MCF7 [2]): 10.27%
- IC50 (MCF7 [1]): 7.64 µM
- Activity (MCF7 [3]): 36.71%
- Activity (MCF7 [6]): 53.02%
- Activity (MCF7 [8]): 21.66%

SMILES: Clc1ncnc2c1ncn2CC1COc2ccccc2S1 (racemic)
- IC50 (MCF7 [1]): 10.6 µM

SMILES: Clc1nc(Cl)c2ncn(CC3COc4ccccc4O3)c2n1 (racemic)
- IC50 (MCF7 [1]): 19.6 µM

SMILES: Clc1ncnc2c1ncn2CC1CSc2ccccc2O1 (racemic)
- Activity (MCF7 [2]): 13.77%
- IC50 (MCF7 [1]): 9.24 µM
- Activity (MCF7 [3]): 23.35%
- Activity [4]: Active
- Activity [5]: inactive
- Activity (MCF7 [6]): 62.87%
- Activity (MCF7 [7]): Active
- Activity (MCF7 [8]): 37.99%
